Laboratory results from patent US20010039287A1, “AROMATIC SULFONE HYDROXAMIC ACID METALLOPROTEASE INHIBITOR” (priority 1997, published 2001).
Where two headings read alike, the source gives them in different places.

What was measured:
[1] = design: AUC (0-∞): unit not given beside the values; conditions: for t½ Hour: Rat Intravenous 20 mpk
[2] = tested on: TNFα; test: Tumor necrosis factor assay: TNFα ELISA on PMA-stimulated U-937 cell supernatant; conditions: Homo sapiens, U-937, read-out: TNFα Release IC50 in micromolar
[3] = target: recombinant human MMP-13 (Homo sapiens, UniProt P45452); test: biochemical; conditions: Inhibition Table B; read-out: MMP-13 IC50
[4] = target: T1, recombinant human MMP-1 (Homo sapiens, UniProt P03956); test: biochemical; conditions: Inhibition Table B; read-out: MMP-1 IC50
T1 construct: made in house; host or cells: transfected HT-1080 cells (provided by Dr. Harold Welgus, Washington University)
T1 sequence (P03956 100-469): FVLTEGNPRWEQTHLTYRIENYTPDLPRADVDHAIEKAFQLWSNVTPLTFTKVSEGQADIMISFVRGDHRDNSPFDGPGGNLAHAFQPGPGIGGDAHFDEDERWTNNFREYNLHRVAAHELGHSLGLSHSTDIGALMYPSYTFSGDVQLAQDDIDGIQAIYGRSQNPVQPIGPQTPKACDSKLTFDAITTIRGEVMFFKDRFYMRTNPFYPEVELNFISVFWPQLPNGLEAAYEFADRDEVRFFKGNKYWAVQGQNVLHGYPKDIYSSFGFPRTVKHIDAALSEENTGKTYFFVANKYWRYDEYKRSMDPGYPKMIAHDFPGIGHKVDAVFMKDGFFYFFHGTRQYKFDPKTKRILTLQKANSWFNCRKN

[5] = target: T2, recombinant human MMP-2 (Homo sapiens, UniProt P08253); test: biochemical; conditions: Inhibition Table B; read-out: MMP-2 IC50
T2 sequence (P08253 110-660): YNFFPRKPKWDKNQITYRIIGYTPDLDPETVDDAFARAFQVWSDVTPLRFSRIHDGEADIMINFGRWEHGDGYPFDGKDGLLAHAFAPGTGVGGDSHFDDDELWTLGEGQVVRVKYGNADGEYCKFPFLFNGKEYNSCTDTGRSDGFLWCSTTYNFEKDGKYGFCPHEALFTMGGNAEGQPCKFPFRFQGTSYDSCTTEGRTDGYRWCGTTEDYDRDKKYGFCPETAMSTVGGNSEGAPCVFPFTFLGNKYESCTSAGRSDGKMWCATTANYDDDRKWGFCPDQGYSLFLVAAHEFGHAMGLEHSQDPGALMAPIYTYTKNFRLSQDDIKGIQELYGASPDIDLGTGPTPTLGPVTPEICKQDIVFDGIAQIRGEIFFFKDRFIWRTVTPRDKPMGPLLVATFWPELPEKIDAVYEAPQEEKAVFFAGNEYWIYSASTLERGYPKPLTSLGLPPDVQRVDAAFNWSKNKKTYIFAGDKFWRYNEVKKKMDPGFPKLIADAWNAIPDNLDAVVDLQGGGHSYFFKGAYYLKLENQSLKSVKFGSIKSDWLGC

[6] = target: recombinant human MMP-9 (Homo sapiens, UniProt P14780); test: biochemical; conditions: Inhibition Table B; read-out: MMP-9 IC50
recombinant human MMP-9, sequence (P14780 107-707 limits assumed): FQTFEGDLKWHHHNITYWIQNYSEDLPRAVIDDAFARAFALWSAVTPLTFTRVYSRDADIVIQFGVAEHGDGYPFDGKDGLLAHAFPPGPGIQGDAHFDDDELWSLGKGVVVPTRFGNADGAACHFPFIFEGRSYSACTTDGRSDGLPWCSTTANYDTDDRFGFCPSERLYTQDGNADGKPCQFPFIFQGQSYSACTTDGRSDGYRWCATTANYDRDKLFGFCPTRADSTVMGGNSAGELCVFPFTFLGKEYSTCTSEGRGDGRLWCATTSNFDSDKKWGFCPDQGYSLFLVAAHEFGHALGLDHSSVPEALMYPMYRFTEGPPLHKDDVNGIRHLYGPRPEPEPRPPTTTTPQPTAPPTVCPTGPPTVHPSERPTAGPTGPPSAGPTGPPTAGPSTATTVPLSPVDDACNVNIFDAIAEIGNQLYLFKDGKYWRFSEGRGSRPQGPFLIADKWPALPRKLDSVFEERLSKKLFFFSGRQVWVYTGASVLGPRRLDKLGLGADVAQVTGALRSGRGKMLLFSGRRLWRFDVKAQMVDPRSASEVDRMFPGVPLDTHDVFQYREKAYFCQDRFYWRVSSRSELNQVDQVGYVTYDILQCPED

[7] = tested on: PC-3 human pancreatic cancer cells (ATCC CRL 1435); test: In vivo PC-3 tumor reduction; design: species or system mouse; conditions: PC-3 tumor in Balb/c nu/nu mice, day 25-30
Description: PC-3 human pancreatic cancer eclls (ATCC CRL 1435) were grown to 90% confluence in F12/MEM (Gibco) containing 7% FBS (Gibco). Cells were mechanically harvested using a rubber scraper, and then washed twice with cold medium. The resulting cells were resuspended in cold medium with 30% matrigel (Collaborative Research) and the cell-containing medium was maintained on ice until used.
Balb/c nu/nu mice at 7-9 weeks of age were anesthetized with avertin [2,2, 2-tribromethanol/t-amyl alcohol (1 g/l mL) diluted 1:60 into phosphate-buffered sline] and 3-5×10^6 of the above cells in 0.2 mL of medium were injected into the left flank of each mouse. Cells were injected in the morning, whereas dosing with an inhibitor began at 6 PM. The animals were gavaged BID from day zero (cell injection day) to day 25-30, at which time the animals were euthanized and tumors weighed.
Compounds were dosed at 10 mg/mL in 0.5% methylcellulose/0.1% polysorbate 80 to provide a 50 mg/kg (mpk) dose twice each day, or diluted to provide a 10 mg/kg (mpk) dose twice each day. Tumor measurements began on day 7 and continued every third or fourth day until completion of the study. Groups of ten mice were used in each study and nine to ten survived. Each group of mice so studied constitutes an “n” value of one, so that “n” values greater than one represent multiple studies whose averaged result is provided in the table. […]

[8] = tested on: solid tumor cancers (colorectal, pancreatic, ovarian, prostate); conditions: cited from earlier work
[9] = tested on: neovascularization of the corneal stroma; test: In vivo angiogenesis assay (corneal micropocket, bFGF pellet); conditions: mouse corneal micropocket, 50 mpk bid po, day five, area of neovascularization vs control
Description: The study of angiogenesis depends on a reliable and reproducible model for the stimulation and inhibition of a neovascular response. The corneal micropocket assay provides such a model of angiogenesis in the cornea of a mouse. See, A Model of Angiogenesis in the Mouse Cornea; Kenyon, B M, et al., Investigative ophthalmology & Visual Science, July 1996, Vol. 37, No. 8.
In this assay, uniformLy sized Hydron™ pellets containing bFGF and sucralfate were prepared and surgically implanted into the stroma mouse cornea adjacent to the temporal limbus. […]
Mice were dosed on a daily basis for the duration of the assay. […] At day five, the degree of angiogenic inhibition was scored by viewing the neovascular progression with a slit lamp microscope.
The mice were anesthetized and the studied eye was once again proptosed. The maximum vessel length of neovascularization, extending from the limbal vascular plexus toward the pellet was measured. In addition, the contiguous circumferential zone of neovascularization was measured as clock hours, where 30 degrees of arc equals one clock hour. The area of angiogenesis was calculated as follows. […]
Five to six mice were utilized for each compound in each study. The studied mice were thereafter compared to control mice and the difference in the area of neovascularization was recorded as an averaged value. […]

O=C(NO)C1(S(=O)(=O)c2ccc(Oc3ccc(OC(F)(F)F)cc3)cc2)CCOCC1 [Example 69]
AUC (0-∞) ([1]; rat, in vivo): 63.78 | Blood Level @ 3 min ([1]; rat, in vivo): 44000 ng/mL | Blood Level @ 3 min ([1]; rat, in vivo, iv, 20 mg/kg): 44000 ng/mL | IC50 [2]: > 80 µM

O=C(NO)C1(S(=O)(=O)c2ccc(Sc3ccccc3)cc2)CCOCC1 [Example 95, Tetrahydro-N-hydroxy-4-[[4-(phenylthio)phenyl]sulfonyl]-2H-pyran-4-carboxamide]
IC50 [3]: 0.5 nM | t½ Hour [1]: 1.06 h | IC50 [4]: > 10000 nM | IC50 [5]: 1 nM | IC50 [2]: > 50 µM | IC50 [6]: 3.6 nM

O=C(NO)C1(S(=O)(=O)c2ccc(Oc3ccc(C(F)(F)F)cc3)cc2)CCOCC1 [Example 379]
t½ Hour [1]: 1.74 h | IC50 [2]: 80 µM

CNC(=O)[C@@H](NC(=O)[C@H](CC(C)C)[C@H](O)C(=O)NO)C(C)(C)C [marimastat]
Average Percentage Reduction In Tumor Weight ([7]; 10 mpk BID gavage): <5 Percentage | Average Percentage Reduction In Tumor Weight ([7]; 50 mpk BID gavage): 39 (n = 2) Percentage | most common drug-related toxicity ([8]; clinical trials, patients): musculoskeletal pain and stiffness | cancer-specific antigens used as surrogate markers for biological activity ([8]; patients with advanced, rapidly progressive, treatment-refractory solid tumor cancers): dose-related reduction in the rise of cancer-specific antigens | Inhibition of Angiogenesis [9]: 48 (n = 6) percent
